Laboratory results published in patent US20220192984A1, “PHARMACEUTICAL COMPOSITIONS COMPRISING OTIC THERAPEUTIC AGENTS AND RELATED METHODS” (Frequency Therapeutics, Inc., priority 2018, published 2022).
“And” between values parts separate entries of the source, which are not always exact repeats. Identical values can stand only once.

How the values were obtained:
GSK-3 alpha = GSK-3 alpha (Homo sapiens, UniProt P49840); details: cited from earlier work
GSK-3 beta = GSK-3 beta (Homo sapiens, UniProt P49841); details: cited from earlier work
Sequence of GSK-3 beta (P49841 whole entry): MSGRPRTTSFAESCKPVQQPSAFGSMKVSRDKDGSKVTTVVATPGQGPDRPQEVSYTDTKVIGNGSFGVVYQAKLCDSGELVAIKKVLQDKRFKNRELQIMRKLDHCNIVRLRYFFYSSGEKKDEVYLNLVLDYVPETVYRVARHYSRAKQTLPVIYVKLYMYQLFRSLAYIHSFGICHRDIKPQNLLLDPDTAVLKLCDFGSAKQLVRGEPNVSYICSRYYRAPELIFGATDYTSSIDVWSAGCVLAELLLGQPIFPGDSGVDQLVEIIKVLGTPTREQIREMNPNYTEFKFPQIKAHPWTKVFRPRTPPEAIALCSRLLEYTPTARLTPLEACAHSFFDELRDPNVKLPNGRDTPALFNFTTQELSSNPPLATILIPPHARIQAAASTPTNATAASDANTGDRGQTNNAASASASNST

Lgr5+ cells = assay: Lgr5+ Assay (Lgr5+ cell assay in vitro); type: cell-based
[1] = Perilymph Conc. listed for agents (Tables 14-25)
[2] = Order of compounding of the test composition (Example 11, Table 26); type: physicochemical; details: organic solvents
Protocol: The first step in the sequence of compounding was to add pre-weighed solid sodium valproate to the stock P407 aqueous solution over ice. The temperature of P407 solution is important to keep the viscosity of this thermoreversible polymer in a liquid free-flowing state. After a clear solution was obtained, the CHIR99021-DMSO stock solution was added slowly to the NaVPA-P407-water solution. […] CHIR99021 also begins to degrade after extended periods of time in solution.

[3] = Stability of the reconstituted test composition in refrigerated syringes (Example 13); type: physicochemical; details: for time assay levels remained stable with initial levels: reconstituted test composition in polypropylene syringes, refrigerated
[4] = Stability of reconstituted higher concentration formulation at 2-8° C. for 8 hours (Table D); type: physicochemical; details: Post Lyo
[5] = Stability of the non-lyophilized test composition under refrigeration (Example 13); type: physicochemical; details: freshly compounded test composition, refrigerator, 0 to 120 hours
[6] = Storage stability of the lyophilized test composition (Table 27); type: physicochemical
Protocol: The lyophilized composition was stored in a glass container with rubber closure and crimp seal under refrigeration for 6 months and at −20° C. for 24 months.

[7] = Stability of the filtered solution prior to lyophilization by HPLC (Example 2); type: physicochemical; details: room temperature
Protocol: Stability Analysis: Prior to lyophilization, the stability of the filtered solution was analyzed by HPLC. The solution was held at room temperature for 4 hours, and samples of the solution was analyzed by HPLC during the period of time. […] Further, about 100% of sodium valproate remained in the solution.

MAOs A and B = details: Table 18, one value, isoform not told; read-out: Select MAOs A and B; cited from earlier work
[8] = Table 18; cited from earlier work
KDM1b = target: T1, KDM1b (Homo sapiens, UniProt Q8NB78); details: Table 18; read-out: Select KDM1b; cited from earlier work
T1 sequence (Q8NB78 1-822): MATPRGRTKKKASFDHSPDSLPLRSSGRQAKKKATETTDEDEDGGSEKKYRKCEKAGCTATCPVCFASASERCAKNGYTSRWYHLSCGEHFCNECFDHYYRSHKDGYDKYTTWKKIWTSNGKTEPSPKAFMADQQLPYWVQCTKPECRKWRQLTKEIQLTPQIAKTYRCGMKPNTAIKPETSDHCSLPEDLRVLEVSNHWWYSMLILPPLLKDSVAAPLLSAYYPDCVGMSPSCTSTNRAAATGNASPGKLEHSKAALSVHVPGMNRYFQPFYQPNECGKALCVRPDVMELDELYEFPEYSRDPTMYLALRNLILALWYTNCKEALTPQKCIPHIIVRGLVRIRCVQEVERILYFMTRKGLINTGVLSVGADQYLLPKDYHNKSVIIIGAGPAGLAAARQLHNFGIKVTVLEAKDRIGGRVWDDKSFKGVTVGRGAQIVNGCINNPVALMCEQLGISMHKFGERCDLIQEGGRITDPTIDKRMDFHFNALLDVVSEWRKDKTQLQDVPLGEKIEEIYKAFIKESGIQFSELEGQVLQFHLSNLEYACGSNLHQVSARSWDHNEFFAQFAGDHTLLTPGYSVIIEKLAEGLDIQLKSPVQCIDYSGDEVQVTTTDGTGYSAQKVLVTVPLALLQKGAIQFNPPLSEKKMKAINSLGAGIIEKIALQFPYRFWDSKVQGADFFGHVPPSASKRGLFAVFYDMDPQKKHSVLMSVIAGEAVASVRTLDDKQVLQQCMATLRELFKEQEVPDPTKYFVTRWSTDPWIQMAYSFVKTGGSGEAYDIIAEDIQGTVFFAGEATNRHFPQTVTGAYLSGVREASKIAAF

LSD1 = LSD1 (Homo sapiens, UniProt O60341); details: Table 18; read-out: Literat. Cell EC50; cited from earlier work
[9] = Reconstitution time of lyophilized compositions (Tables E, 28, 35); type: physicochemical
Protocol: Diluent 1, 0.85 mL+lyophilized cake. […] Gentle tapping on the exterior of the vessel to help the cake dissolve in the Diluent may be required while keeping it in fridge (or ice bath). To avoid degradation of the composition, minimize stirring and/or vortexing.
Diluent 1, 0.95 mL+Placebo cake: Using a syringe, add the Diluent to the Placebo cake, and rest in a fridge or ice bath (2-8° C.) for 60 minutes or until clear solution is formed. Gentle tapping on the exterior of the vessel to help the cake dissolve in the Diluent may be required while keeping it in fridge (or ice bath). To avoid degradation of the composition, minimize stirring and/or vortexing.
Powder P407 (i.e. non-lyophilized) can be obtained from BASF.
Reconstitution of lyophilized P407 (Placebo) and powder P407 was done using 850 μL Diluent (see above for example preparations of a Diluent) in a vial.
Therefore, to probe the effect of salts other than sodium valproate on reconstitution time, a poloxamer solution at 16.15% concentration either alone or including a salt (e.g. an inorganic salt or organic acid salt) at a concentration of 533.25 mM, was lyophilized. The lyophilized material was then reconstituted using Diluent for reconstitution (6.4% DMSO by wt. % in water) or with water.
Building on the results of Examples 14 to 16, further lyophilized compositions were manufactured and had their reconstitution times evaluated. […] The further lyophilized compositions were made in accordance with Example 10, and reconstituted in accordance with Example 12.

HDAC = details: Mechanism HDAC Inhib 1, 2, 3, 8; cited from earlier work
[10] = type: physicochemical; details: lyophilized composition (Dosage 1) stored at 5° C., room temperature or 40° C. under 75% relative humidity in the dark
Protocol: Stability Analysis: The stability of the lyophilized composition formulation (Dosage 1) was analyzed upon storage at 5° C., room temperature, or 40° C. under 75% relative humidity in the dark Samples were taken at various time points, reconstituted as described in Example 4 and samples analyzed by HPLC. […] About 100% of sodium valproate remained.
Long-term stability of the lyophilized composition formulation (Dosage 1) was tested. The composition was held at room temperature (ambient) in the dark for two months and reconstituted as described in Example 4 below.

ErbB3/HER3 = ErbB3/HER3 (Homo sapiens, UniProt P21860); details: read-out: HER 3 pKi or IC50 (converted); cited from earlier work
Sequence of ErbB3/HER3 (P21860 20-1342): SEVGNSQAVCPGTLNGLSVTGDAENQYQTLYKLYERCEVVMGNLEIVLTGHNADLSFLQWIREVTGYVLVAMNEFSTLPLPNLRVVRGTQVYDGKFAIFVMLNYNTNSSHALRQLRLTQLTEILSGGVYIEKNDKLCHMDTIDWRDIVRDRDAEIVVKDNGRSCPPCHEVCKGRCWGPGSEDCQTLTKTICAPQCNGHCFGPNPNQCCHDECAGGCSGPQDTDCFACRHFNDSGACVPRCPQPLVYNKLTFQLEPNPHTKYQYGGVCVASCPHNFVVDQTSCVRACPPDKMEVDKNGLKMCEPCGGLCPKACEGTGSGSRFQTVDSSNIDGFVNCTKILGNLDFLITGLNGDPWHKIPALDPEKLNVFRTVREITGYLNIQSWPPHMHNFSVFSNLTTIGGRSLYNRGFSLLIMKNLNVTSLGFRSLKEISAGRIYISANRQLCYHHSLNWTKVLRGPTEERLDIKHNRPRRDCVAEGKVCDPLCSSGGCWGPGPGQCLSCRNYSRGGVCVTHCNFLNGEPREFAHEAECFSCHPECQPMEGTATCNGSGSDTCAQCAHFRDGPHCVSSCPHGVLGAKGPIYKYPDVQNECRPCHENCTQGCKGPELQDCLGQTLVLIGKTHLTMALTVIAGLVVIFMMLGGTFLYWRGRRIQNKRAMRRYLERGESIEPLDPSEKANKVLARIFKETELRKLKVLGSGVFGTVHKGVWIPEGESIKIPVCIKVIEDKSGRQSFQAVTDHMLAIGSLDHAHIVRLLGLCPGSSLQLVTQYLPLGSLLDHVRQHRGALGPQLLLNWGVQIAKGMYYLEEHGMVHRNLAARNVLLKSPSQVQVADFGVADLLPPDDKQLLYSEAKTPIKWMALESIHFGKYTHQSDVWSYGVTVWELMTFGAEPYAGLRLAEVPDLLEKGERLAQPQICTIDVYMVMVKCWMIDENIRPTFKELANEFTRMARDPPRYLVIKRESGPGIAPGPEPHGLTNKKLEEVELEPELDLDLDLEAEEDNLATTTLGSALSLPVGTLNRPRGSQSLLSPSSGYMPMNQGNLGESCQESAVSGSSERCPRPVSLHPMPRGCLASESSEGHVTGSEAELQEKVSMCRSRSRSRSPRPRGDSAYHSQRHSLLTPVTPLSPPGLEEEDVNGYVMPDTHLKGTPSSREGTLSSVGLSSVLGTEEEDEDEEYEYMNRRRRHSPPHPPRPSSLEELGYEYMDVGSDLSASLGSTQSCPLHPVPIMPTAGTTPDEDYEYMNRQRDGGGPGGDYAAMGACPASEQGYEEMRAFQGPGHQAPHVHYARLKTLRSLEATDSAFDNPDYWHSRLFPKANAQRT

[11] = Table 14, listed concentration, no test described
[12] = lyophilized composition GMP lot B17030018, Refrigerated, 1 month
[13] = lyophilized composition GMP lot B17030018, Refrigerated, 2 months
[14] = lyophilized composition GMP lot B17030018, Refrigerated, 3 months
[15] = lyophilized composition GMP lot B17030018, Refrigerated, 6 months
[16] = lyophilized composition GMP lot B17030018, Release, 0 month
[17] = lyophilized composition GMP lot B17030018, −20, 1 month
[18] = lyophilized composition GMP lot B17030018, −20, 2 months
[19] = lyophilized composition GMP lot B17030018, −20, 3 months
[20] = lyophilized composition GMP lot B17030018, −20, 6 months
[21] = lyophilized composition GMP lot B17030018, −20, 9 months
[22] = lyophilized composition GMP lot B17030018, −20, 12 months
[23] = lyophilized composition GMP lot B17030018, −20, 18 months
[24] = lyophilized composition GMP lot B17030018, −20, 24 months

Sequence of GSK-3 alpha (P49840 whole entry): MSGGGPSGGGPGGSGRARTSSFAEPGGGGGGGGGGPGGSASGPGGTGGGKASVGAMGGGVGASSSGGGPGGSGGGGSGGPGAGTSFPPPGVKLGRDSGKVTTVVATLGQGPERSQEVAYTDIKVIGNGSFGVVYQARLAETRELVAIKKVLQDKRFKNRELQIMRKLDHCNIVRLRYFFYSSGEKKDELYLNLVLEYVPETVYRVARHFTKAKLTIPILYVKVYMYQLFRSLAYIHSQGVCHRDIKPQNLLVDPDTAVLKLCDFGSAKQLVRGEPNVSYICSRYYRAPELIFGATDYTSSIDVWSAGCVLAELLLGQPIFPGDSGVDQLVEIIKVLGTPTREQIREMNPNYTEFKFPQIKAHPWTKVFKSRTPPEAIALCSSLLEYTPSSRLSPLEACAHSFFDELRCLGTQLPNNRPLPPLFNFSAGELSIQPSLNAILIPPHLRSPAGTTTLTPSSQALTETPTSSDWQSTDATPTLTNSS

| Structure (SMILES) | Perilymph Conc [1, 11] | time assay levels remained stable with initial levels [3] | % Rel Error [4] | Conc. [4] | % Rel Error ([4]; 24 Hrs, refrigerator 2-8° C.) | Conc. ([4]; 24 Hrs, refrigerator 2-8° C.) | assay level over time [5] | Assay (drug content) [6, 12] | Assay (drug content) [6, 13] | Assay (drug content) [6, 14] | Assay (drug content) [6, 15] | Assay (drug content) [6, 16] | Assay (drug content) [6, 17] | Assay (drug content) [6, 18] | Assay (drug content) [6, 19] | Assay (drug content) [6, 20] | Assay (drug content) [6, 21] | Assay (drug content) [6, 22] | Assay (drug content) [6, 23] | Assay (drug content) [6, 24] | also measured |
| --- | --- | --- | --- | --- | --- | --- | --- | --- | --- | --- | --- | --- | --- | --- | --- | --- | --- | --- | --- | --- | --- |
| O=C1NC(=O)C(c2cnc3ccccn23)=C1c1cn2c3c(cc(F)cc13)CN(C(=O)N1CCCCC1)CC2 [LY2090314, 3-(9-fluoro-2-(piperidine-1-carbonyl)-1,2,3,4-tetrahydro-[1,4]diazepino[6,7,1-hi]indol-7-yl)-4-(imidazo[1,2-a]pyridin-3-yl)-1H-pyrrole-2,5-dione] | 0.005 to 0.02 µM |  |  |  |  |  |  |  |  |  |  |  |  |  |  |  |  |  |  |  | GSK-3 alpha (GSK-3 alpha): 2.1 nM; GSK-3 beta (GSK-3 beta): 0.9 nM; Lgr5+ Assay (Lgr5+ cells; Table 14): 5 to 20 nM |
| Cc1cnc(-c2cnc(NCCNc3ccc(C#N)cn3)nc2-c2ccc(Cl)cc2Cl)[nH]1 [CHIR99021] | 2 to 6 µM | 6 h | 2.2% and 2.4% | 3470 µg/mL and 3480 µg/mL | −1.3% and 0.6% | 3360 µg/mL and 3420 µg/mL | decreased from its initial level over time | 105% | 105% | 104% | 102% | 103% | 107% | 107% | 104% | 103% | 102% | 99% | 100% | 100% | solubility of CHIR99021 [2]: very limited in almost all organic solvents except polar solvents, such as DMSO; decrease of assay level from its initial level ([3]; reconstituted test composition in refrigerated syringes, sometime between 8 and 24 hours): 37%; total impurities formed for CHIR99021 ([7]; over 4 hours): about 4.6% |
| N[C@@H]1C[C@H]1c1ccccc1 [TCP] |  |  |  |  |  |  |  |  |  |  |  |  |  |  |  |  |  |  |  |  | IC50 (MAOs A and B): 1000 nM; Human Plasma Conc Cmax [8]: 0.03 to 0.2 µg/mL; Lgr5+ Assay (Lgr5+ cells; Table 18, concentration range or its upper end): 100 to 20000 nM; Perilymph Conc ([1]; Table 18, range or its upper end): 0.1 to 20 µM |
| O=C(O)c1ccc(CN2CCC(CN[C@@H]3C[C@H]3c3ccccc3)CC2)cc1 [GSK-2879552] |  |  |  |  |  |  |  |  |  |  |  |  |  |  |  |  |  |  |  |  | IC50 (KDM1b): 20000 nM; Human Plasma Conc [8]: 1 to 100 nM; Lgr5+ Assay (Lgr5+ cells; Table 18, lower end of concentration range): ≥ 40 nM-; EC50 (LSD1): 2 to 240 nM; Perilymph Conc ([1]; Table 18, lower end of range): ≥ 40 nM-; Perilymph Conc ([1]; Table 18, upper end of range): ≤ 30 µM |
| CCCC(CCC)C(=O)O [Sodium Valproate, Sodium 2-propylpentanoate] |  | 6 h | 7.3% and 5.5% | 102900 µg/mL and 101100 µg/mL | 5.3% and 7.5% | 101000 µg/mL and 103100 µg/mL | remained constant over this time | 100% | 100% | 100% | 99% | 100% | 101% | 100% | 100% | 100% | 99% | 99% | 101% | 98% | Reconstitution time (minutes) water + DMSO ([9]; lyophilized 16.15% P407 with salt at 533.25 mM, reconstituted with Diluent ([…] DMSO in water)): 25 min; Reconstitution time (minutes) with water ([9]; lyophilized 16.15% P407 with salt at 533.25 mM, reconstituted with water): 20 min; reconstitution time of lyophilized poloxamer with added organic acid salt ([9]; poloxamer 16.15%, salt 533.25 mM): 420 min; assay level ([3]; reconstituted test composition in refrigerated syringes, up to 24 hours): remained constant over this time; HDAC Potenc (HDAC): 39 to 161 µM; sodium valproate remained [10]: About 100%; Lgr5+ Assay (Lgr5+ cells; HDAC inhibitor table, upper end of the wrapped range 100 uM-4 mM): ≤ 4e+06 nM; Perilymph Conc ([1]; HDAC inhibitor table, upper end of the wrapped range 100 uM-4 mM, no test described): ≤ 4000 µM; sodium valproate remained in the solution ([7]; 4 hours): about 100% |
| CN1CCN(Cc2ccc(NC(=O)Cc3ccc(Oc4cc(NC(=O)C5CC5)ncn4)cc3)cc2C(F)(F)F)CC1 [WS6] |  |  |  |  |  |  |  |  |  |  |  |  |  |  |  |  |  |  |  |  | IC50 (ErbB3/HER3): 280 nM |
